The EC50 is the concentration that produces a half-maximal response. Read a high EC50 as weaker potency.

*1 amine or outer side, *2 acyl side, *3 side chain or, on linkers, in order; H or OH if unused. Where a SMILES comes first, the peptide text is derived from it. Bridges are numbered along the chain shown (N, C = ends). [ ]: non-standard residue; d: D form. X34 = O=C(C[C@@H](Cc1ccccc1)C(=O)[*:2])C12CC(CN[*:1])(C1)C2; Phe(4-guanidino) = N=C(N)Nc1ccc(C[C@H](N)C(=O)O)cc1; Ala(pyrimidin-5-yl) = N[C@@H](Cc1cncnc1)C(=O)O; NMe3Pal(6-Me) = CN[C@@H](Cc1ccc(C)nc1)C(=O)O; NMePhe(3-Me) = CN[C@@H](Cc1cccc(C)c1)C(=O)O; X33 = O=C([C@H](Cc1ccnc(F)c1F)N[*:1])[*:2]; X42 = O=C([C@H](Cc1cc(F)ncc1F)N[*:1])[*:2]; NMeAha = CN[C@@H](CCN=[N+]=[N-])C(=O)O; Nle(5,5-F2) = CC(F)(F)CC[C@H](N)C(=O)O; Phe(3-F) = N[C@@H](Cc1cccc(F)c1)C(=O)O; X2 = O=C([C@H](Cc1ccccc1F)O[*:1])[*:2]; Phe(2-F) = N[C@@H](Cc1ccccc1F)C(=O)O; NMe3Pal = CN[C@@H](Cc1cccnc1)C(=O)O; X1 = O=C(C12CC(CN[*:1])(C1)C2)[*:2]; NMeLys(Me) = CNCCCC[C@H](NC)C(=O)O; NMeOrn(Me) = CNCCC[C@H](NC)C(=O)O; Ala(cPr) = N[C@@H](CC1CC1)C(=O)O; NMeF = CN[C@@H](Cc1ccccc1)C(=O)O; PhLac = O=C(O)[C@@H](O)Cc1ccccc1; X4 = O=C([C@H](CCCF)N[*:1])[*:2]; 3Pal = N[C@@H](Cc1cccnc1)C(=O)O; Ahp(2) = CCCCC[C@H](N)C(=O)O; Cba = N[C@@H](CC1CCC1)C(=O)O; hLeu = CC(C)CC[C@H](N)C(=O)O; αMeC = C[C@](N)(CS)C(=O)O; NMeA = CN[C@@H](C)C(=O)O; Nle = CCCC[C@H](N)C(=O)O A value given as a limit tells only on which side of the number the result lay.

The target of this assay is phosphorylation levels of ERK1/2 in AsPC-1 (homozygous KRAS-G12D) cells (Homo sapiens, UniProt P01116, G12D). Description: Cellular phospho-ERK assay in AsPC-1 cells (Alpha Screen), assay medium without fetal bovine serum.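 Also: signal taken as phospho-ERK over total ERK per well, both detected in one multiplex bead assay, EC50 from four-parameter logistic fit of dose-response curves.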 Type of assay: cell-based. Conditions: phospho-ERK AlphaScreen, 18 h. Background: In Alpha technology, singlet oxygen from a donor bead excites a nearby acceptor bead.
Chain of phosphorylation levels of ERK1/2 in AsPC-1 (homozygous KRAS-G12D) cells (P01116 1-186 G12D): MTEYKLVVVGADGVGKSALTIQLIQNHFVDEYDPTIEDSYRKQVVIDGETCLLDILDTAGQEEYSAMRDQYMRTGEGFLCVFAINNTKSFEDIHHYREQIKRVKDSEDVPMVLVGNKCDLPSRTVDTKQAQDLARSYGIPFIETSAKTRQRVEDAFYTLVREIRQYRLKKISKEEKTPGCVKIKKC
The molecule `CCCC[C@@H]1NC(=O)[C@H](Cc2cncnc2)NC(=O)[C@H](C)N(C)C(=O)[C@H](Cc2ccccc2)OC(=O)C23CC(CNC(=O)[C@H](Cc4ccccc4)N(C)C(=O)[C@H](CCCC)NC(=O)[C@H](Cc4ccccc4F)NC1=O)(C2)C3` [compound 230, cyclo(FLac-NMeA-PyrimAla-Nle-Phe2F-Nle-NMeF-amBCP)] (cyclo([NMeA][Ala(pyrimidin-5-yl)][Nle][Phe(2-F)][Nle][NMeF][X1][PhLac])) showed an EC50 of 590 nM. Turning to `C[C@H]1C(=O)N[C@@H](Cc2cncnc2)C(=O)N[C@@H](CC2CC2)C(=O)N[C@@H](Cc2ccccc2F)C(=O)N[C@@H](CCC(C)(F)F)C(=O)N(C)[C@@H](Cc2ccccc2)C(=O)NCC23CC(C2)(C3)C(=O)C[C@@H](Cc2ccccc2)C(=O)N1C` [compound 290, cyclo(CPhe-NMeA~PyrimAla-cPrA-Phe2F-Nle3F2-NMeF-amBCP)] (cyclo([Ala(cPr)][Phe(2-F)][Nle(5,5-F2)][NMeF][X34][NMeA][Ala(pyrimidin-5-yl)])), a half-maximal effect (EC50) was put at 1070 nM. For `CCCC[C@@H]1NC(=O)[C@H](Cc2ccccc2F)NC(=O)[C@H](CCCF)NC(=O)[C@H](Cc2cccnc2)NC(=O)[C@H](C)N(C)C(=O)[C@H](Cc2ccccc2)OC(=O)C23CC(CNC(=O)[C@H](Cc4cccnc4)N(C)C1=O)(C2)C3` [compound 120, cyclo(FLac-NMeA-3Pal-NvaF-Phe2F-Nle-NMe3Pal-amBCP)] (cyclo([3Pal][X4][Phe(2-F)][Nle][NMe3Pal][X1][PhLac][NMeA])) the value was > 50800 nM. For `CC(C)CC[C@@H]1NC(=O)[C@H](Cc2cccc(F)c2)NC(=O)[C@H](CC2CCC2)NC(=O)[C@H](Cc2cncnc2)NC(=O)[C@H](C)N(C)C(=O)[C@H](Cc2ccccc2)OC(=O)C23CC(CNC(=O)[C@H](Cc4ccccc4)N(C)C1=O)(C2)C3` [compound 303, cyclo(FLac-NMeA-PyrimAla-cBuA-Phe3F-hL-NMeF-amBCP)] (cyclo([Cba][Phe(3-F)][hLeu][NMeF][X1][PhLac][NMeA][Ala(pyrimidin-5-yl)])) the value was 806 nM; for `CCCC[C@@H]1NC(=O)[C@H](Cc2cccnc2)NC(=O)[C@H](C)N(C)C(=O)[C@H](Cc2ccccc2)OC(=O)C23CC(CNC(=O)[C@H](Cc4cccnc4)N(C)C(=O)[C@H](CCC(C)C)NC(=O)[C@H](Cc4ccccc4F)NC1=O)(C2)C3` [compound 124, cyclo(FLac-NMeA-3Pal-Nle-Phe2F-hL-NMe3Pal-amBCP)] (cyclo([3Pal][Nle][Phe(2-F)][hLeu][NMe3Pal][X1][PhLac][NMeA])), 4650 nM; for `CCCCC[C@@H]1NC(=O)[C@H](Cc2ccc(OC)cc2)NC(=O)[C@H](CC2CCC2)NC(=O)[C@H](Cc2cccnc2)NC(=O)[C@H](C)N(C)C(=O)[C@H](Cc2ccccc2)OC(=O)C23CC(CNC(=O)[C@H](Cc4ccccc4)N(C)C1=O)(C2)C3` [compound 227, cyclo(FLac-NMeA-3Pal-cBuA-TyrOMe-Ahp-NMeF-amBCP)] (cyclo([3Pal][Cba]Y(Me)[Ahp(2)][NMeF][X1][PhLac][NMeA])), 886 nM. As to `CCCC[C@@H]1NC(=O)[C@H](Cc2cccnc2)NC(=O)[C@H](CCN=[N+]=[N-])N(C)C(=O)[C@H](Cc2ccccc2)OC(=O)C23CC(CNC(=O)[C@H](Cc4cccnc4)N(C)C(=O)[C@H](CCCC)NC(=O)[C@H](Cc4ccccc4F)OC1=O)(C2)C3` [compound 238, cyclo(FLac-NMeDabN3-3Pal-Nle-F2FLac-Nle-NMe3Pal-amBCP)] (cyclo([3Pal][Nle][X2][Nle][NMe3Pal][X1][PhLac][NMeAha])), the EC50 was 3480 nM. In the case of `CC(C)CC[C@@H]1NC(=O)[C@H](Cc2ccnc(F)c2F)NC(=O)[C@H](CC2CC2)NC(=O)[C@H](Cc2cncnc2)NC(=O)[C@H](C)N(C)C(=O)[C@H](Cc2ccccc2)OC(=O)C23CC(CNC(=O)[C@H](Cc4ccccc4)N(C)C1=O)(C2)C3` [compound 293, cyclo(FLac-NMeA-PyrimAla-cPrA-4Pal23F2-hL-NMeF-amBCP)] (cyclo([Ala(cPr)][X33][hLeu][NMeF][X1][PhLac][NMeA][Ala(pyrimidin-5-yl)])), the response was half-maximal at 45500 nM (EC50). Under `Cc1cccc(C[C@H]2C(=O)NCC34CC(C3)(C4)C(=O)O[C@@H](Cc3ccccc3)C(=O)N(C)[C@@H](C)C(=O)N[C@@H](Cc3cncnc3)C(=O)N[C@@H](CC3CC3)C(=O)N[C@@H](Cc3ccccc3F)C(=O)N[C@@H](CCC(C)(F)F)C(=O)N2C)c1` [compound 275, cyclo(FLac-NMeA-PyrimAla-cPrA-Phe2F-Nle3F2-NMePhe3Me-amBCP)] (cyclo([Ala(cPr)][Phe(2-F)][Nle(5,5-F2)][NMePhe(3-Me)][X1][PhLac][NMeA][Ala(pyrimidin-5-yl)])) stands 924 nM. Under `CCCCC[C@@H]1NC(=O)[C@H](Cc2ccc(OC)cc2)NC(=O)[C@H](CC2CCC2)NC(=O)[C@H](Cc2cccnc2)NC(=O)[C@H](C)N(C)C(=O)[C@H](Cc2ccccc2)NC(=O)CSC[C@@](C)(C(N)=O)NC(=O)[C@H](Cc2ccccc2)N(C)C1=O` [compound 158, cyclo(F-NMeA-3Pal-cBuA-TyrOMe-Ahp-NMeF-aMeCl-ClAc)] ({CH2CO}-F[NMeA][3Pal][Cba]Y(Me)[Ahp(2)][NMeF][αMeC]-NH2; thioether N-8) stands > 50800 nM; under `CCCCC[C@@H]1NC(=O)[C@H](Cc2ccc(OC)cc2)NC(=O)[C@H](CC2CCC2)NC(=O)[C@H](Cc2ccc(NC(=N)N)cc2)NC(=O)[C@H](CCCCNC)N(C)C(=O)[C@H](Cc2ccccc2)NC(=O)CSC[C@@](C)(C(N)=O)NC(=O)[C@H](Cc2ccccc2)N(C)C1=O` [compound 360, cyclo(F-NMeLysMe-Phe4Gn-cBuA-TyrOMe-Ahp-NMeF-aMeCl-ClAc)] ({CH2CO}-F[NMeLys(Me)][Phe(4-guanidino)][Cba]Y(Me)[Ahp(2)][NMeF][αMeC]-NH2; thioether N-8), > 50800 nM; under `CCCC[C@@H]1NC(=O)[C@H](Cc2cncnc2)NC(=O)[C@H](C)N(C)C(=O)[C@H](Cc2ccccc2)OC(=O)C23CC(CNC(=O)[C@H](Cc4ccccc4)N(C)C(=O)[C@H](CCC(C)C)NC(=O)[C@H](Cc4ccccc4F)NC1=O)(C2)C3` [compound 132, cyclo(FLac-NMeA-PyrimAla-Nle-Phe2F-hL-NMeF-amBCP)] (cyclo([NMeA][Ala(pyrimidin-5-yl)][Nle][Phe(2-F)][hLeu][NMeF][X1][PhLac])), 1110 nM.

Consider `CC(C)CC[C@@H]1NC(=O)[C@H](Cc2cc(F)ncc2F)NC(=O)[C@H](CC2CC2)NC(=O)[C@H](Cc2cncnc2)NC(=O)[C@H](C)N(C)C(=O)[C@H](Cc2ccccc2)OC(=O)C23CC(CNC(=O)[C@H](Cc4ccccc4)N(C)C1=O)(C2)C3` [compound 280, cyclo(FLac-NMcA-PyrimAla-cPrA-4Pal25F2-hL-NMeF-amBCP)] (cyclo([Ala(cPr)][X42][hLeu][NMeF][X1][PhLac][NMeA][Ala(pyrimidin-5-yl)])), for which the EC50 was determined as 1230 nM. Under `CCCCC[C@@H]1NC(=O)[C@H](Cc2ccc(OC)cc2)NC(=O)[C@H](CC2CCC2)NC(=O)[C@H](Cc2cncnc2)NC(=O)[C@H](CCCNC)N(C)C(=O)[C@H](Cc2ccccc2)NC(=O)CSC[C@@](C)(C(N)=O)NC(=O)[C@H](Cc2ccc(C)nc2)N(C)C1=O` [compound 394, cyclo(F-NMeOmMe-PyrimAla-cBuA-TyrOMe-Ahp-NMe3Pal4Me-aMeCl-ClAc)] ({CH2CO}-F[NMeOrn(Me)][Ala(pyrimidin-5-yl)][Cba]Y(Me)[Ahp(2)][NMe3Pal(6-Me)][αMeC]-NH2; thioether N-8) stands > 50800 nM.

The values are drawn from patent US20260001914A1, “MACROCYCLIC PEPTIDES TARGETING KRAS” (Merck Sharp & Dohme LLC, priority 2022, published 2026).
